Here are results for 22 compounds from patent publication US6482849B1, “Inhibitors of α4β1 mediated cell adhesion” (Tanabe Seiyaku Co., Ltd., priority 1997, dated 2002).

Series [1] deals with T1, α4β1 integrin (Jurkat T-cell adhesion to IL-1 stimulated endothelial cell monolayers) (Homo sapiens, UniProt P05556+P13612).
T1 construct: a T-cell line, Jurkat, known to express the α4β1 integrin; host or cells: Jurkat T-cell line
The series can be described thus: Jurkat-Endothelial Cell Adhesion Assay (Jurkat EC). Type of series: cell-based. To be noted: Jurkat cells on IL-1 stimulated HUVEC monolayers. The method, then:
The following assay established the activity of the present compounds in inhibiting β1-mediated cell adhesion in a representative in vitro system. This assay measures the adhesive interactions of a T-cell line, Jurkat, known to express the α4β1 integrin, to endothelial monolayers in the presence of test compounds. The test compounds were added in increasing concentrations to T-cells and then the T-cell compound mixture was added to IL-1 stimulated endothelial cell monolayers. The plates were incubated, washed and the percentage of attached cells was quantitated. […] Human umbilical vein endothelial cells were purchased from Clonetics (San Diego, Calif.) at passage number 2. The cells were grown on 0.5% porcine skin gelatin pre-coated flasks (Sigma, St. Louis Mo.) in EGM-UV media (Clonetics, San Diego, Calif.) supplemented with 10% fetal bovine serum. Cells are refed every 2-3 days reaching confluence by day 4 to 6. […] The endothelial cells are not used following passage 6. Am The T-cell line Jurkat was obtained from American Type Tissue Culture Collection (Rockville, Md.) and the cells were cultured in RPMI containing 10% fetal calf serum. The cells were washed twice in Hank's Balanced Salt Solution (HBSS) and resuspended in Dulbecco's […] Eagle's Media (DMEM) containing 2.5 mg/ml Human Serum Albumin (HSA). Jurkat cells (1×10^6 cells/ml) were stained with 10 ng/ml BCECF-AM z z (Molecular Probes, Eugene, Ore.)) in HBSS without phenol red. The cells were loaded with BCECF for 60 minutes in the dark at 37° C., washed 2 times, and resusupended in DMEM-HSA solution.
Confluent endothelial monolayers, grown in 96-well tissue culture plates, were stimulated for 4 hr. at 37° C. with 0.1 ng/ml (˜50 U/ml) recombinant IL-1 (Amgen, Thousand Oaks, Calif.). Following this incubation, the monolayers were washed twice with HBSS and 0.1 ml of DMEM-HSA solution was added. Jurkat cells (5×10^5 cells) were combined with the appropriate concentration of the test compound and 0.1 ml of the Jurkat cell-compound mixture was added to the endothelial cell monolayers. Generally, 100, 20, 5 and 1.25 μM compound concentrations were tested. […] The plates were placed on ice for 5 minutes to allow for Jurkat cell settling and the plates were incubated at 37° C. for 20 minutes. Following this incubation, the monolayers were washed twice with PBS containing 1 mM calcium chloride and 1 mM magnesium chloride and the plates were read using a Millipore Cytofluor 2300 (Marlboro, Mass.). Fluorescence in each well was measured as Arbitrary Fluorescence Units and percent adhesion in the absence of compound was adjusted to 100% and the % adhesion in the presence of compound was calculated. Monolayers were also fixed in 3% paraformaldehyde and evaluated microscopically to verify the adhesion. This procedure is a modification of a previously published method (Cardarelli et al., J. Biol. Chem. 269:18668-18673 (1994)).

For series [2], the target named is T2, α4β1 integrin (Jurkat cell adhesion to immobilized CS-1 derived peptide CLHPGEILDVPST) (Homo sapiens, UniProt P05556+P13612).
T2 construct: 100 μl of Jurkat cells (2.5×10^6 cells/ml) in DMEM plus BSA; endogenous in cells; host or cells: Jurkat T-cell line
T2 sequence (P13612 34-1032): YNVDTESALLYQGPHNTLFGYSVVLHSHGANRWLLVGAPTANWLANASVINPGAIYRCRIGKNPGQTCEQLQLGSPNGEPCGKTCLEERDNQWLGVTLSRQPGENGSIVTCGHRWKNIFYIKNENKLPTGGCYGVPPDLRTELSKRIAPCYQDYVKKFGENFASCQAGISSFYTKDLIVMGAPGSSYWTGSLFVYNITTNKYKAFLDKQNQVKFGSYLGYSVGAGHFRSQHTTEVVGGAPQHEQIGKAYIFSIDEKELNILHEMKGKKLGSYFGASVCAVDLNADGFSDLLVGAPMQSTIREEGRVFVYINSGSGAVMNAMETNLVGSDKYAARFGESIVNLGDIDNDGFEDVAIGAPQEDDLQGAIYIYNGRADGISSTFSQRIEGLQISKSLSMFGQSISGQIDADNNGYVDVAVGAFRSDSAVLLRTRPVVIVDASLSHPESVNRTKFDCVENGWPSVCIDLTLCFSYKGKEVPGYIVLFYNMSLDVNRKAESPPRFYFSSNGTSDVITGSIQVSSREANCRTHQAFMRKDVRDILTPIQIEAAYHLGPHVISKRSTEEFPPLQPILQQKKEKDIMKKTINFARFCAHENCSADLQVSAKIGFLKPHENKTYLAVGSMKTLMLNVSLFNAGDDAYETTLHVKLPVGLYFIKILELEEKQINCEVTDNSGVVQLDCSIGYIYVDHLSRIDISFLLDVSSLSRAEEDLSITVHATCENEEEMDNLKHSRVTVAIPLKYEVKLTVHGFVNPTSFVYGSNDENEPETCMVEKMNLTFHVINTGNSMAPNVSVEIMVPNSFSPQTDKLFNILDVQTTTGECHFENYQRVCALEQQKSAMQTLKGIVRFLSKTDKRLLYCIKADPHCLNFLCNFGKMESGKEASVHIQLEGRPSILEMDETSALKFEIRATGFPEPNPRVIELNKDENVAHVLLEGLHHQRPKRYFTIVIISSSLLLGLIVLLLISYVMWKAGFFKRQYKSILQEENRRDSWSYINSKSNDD
T2 sequence (P05556 21-798): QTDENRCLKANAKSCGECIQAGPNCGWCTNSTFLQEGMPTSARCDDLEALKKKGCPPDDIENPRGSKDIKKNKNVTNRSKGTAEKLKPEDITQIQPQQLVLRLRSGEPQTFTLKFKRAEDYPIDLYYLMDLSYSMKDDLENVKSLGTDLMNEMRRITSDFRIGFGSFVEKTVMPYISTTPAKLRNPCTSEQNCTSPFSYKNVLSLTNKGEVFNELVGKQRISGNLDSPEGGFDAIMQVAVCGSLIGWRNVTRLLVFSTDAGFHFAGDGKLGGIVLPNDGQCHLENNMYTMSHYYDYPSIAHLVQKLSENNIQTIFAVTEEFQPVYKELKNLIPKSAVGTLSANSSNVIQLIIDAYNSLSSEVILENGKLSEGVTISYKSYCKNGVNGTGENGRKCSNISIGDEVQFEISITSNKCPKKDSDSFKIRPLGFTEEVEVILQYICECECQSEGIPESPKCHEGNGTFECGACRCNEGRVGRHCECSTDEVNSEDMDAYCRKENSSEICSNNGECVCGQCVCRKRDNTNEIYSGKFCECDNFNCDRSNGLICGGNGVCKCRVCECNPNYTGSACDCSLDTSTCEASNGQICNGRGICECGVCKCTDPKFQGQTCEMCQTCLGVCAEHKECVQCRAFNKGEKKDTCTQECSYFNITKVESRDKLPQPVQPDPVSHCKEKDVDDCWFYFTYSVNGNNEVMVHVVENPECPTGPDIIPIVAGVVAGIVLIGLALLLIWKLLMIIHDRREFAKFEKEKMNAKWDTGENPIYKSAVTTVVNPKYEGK
The series can be described thus: Jurkat-CS-1 Assay. The format is cell-based. The note with it: Jurkat cells on CS-1 peptide coated plates. The method, then:
The CS-1 derived peptide, CLHPGEILDVPST, and the scrambled control peptide, CLHGPIELVSDPT, were synthesized on a Beckman 990 synthesizer using t-Boc methodology. The peptides were immobilized onto microtiter plates using the heterobifunctional crosslinker 3-(2-pyridyldithio)propionic acid N-hydroxysuccinimide ester (SPDP) as reported by Pierschbacher et al., Proc. Natl. Acad. USA, 80:1224-1227 (1983). Microtiter plates were coated with 20 μg/ml HSA for 2 hr. at room temperature, washed once with PBS and derivatized with 10 μg/ml SPDP for 1 hr. After washing, 100 μl of a 100 μg/ml cysteine containing peptide solution which had been recently dissolved was added to the wells and allowed to crosslink to the plates overnight at 4° C. Unbound peptide was removed from plates by washing with PBS. To block non-reacted sites, the plates are coated with 100 μl of a 2.5 mg/ml BSA solution in PBS for 1 hr. at 37° C. 100 μl of Jurkat cells (2.5×10^6 cells/ml) in DMEM plus BSA (2.5 mg/ml) was mixed with an appropriate concentration of the compound to be tested and the mixture was added to peptide coated dishes and incubated for 1 hr. at 37° C. Generally 100, 20, 5 and 1.25 μM concentrations of the compound were tested.
Following this incubation the plates were washed once with PBS and the attached cells were fixed with 3% paraformaldehyde in PBS and stained with 0.5% toluidine blue in 3.7% formaldehyde. The cells were stained overnight at room temperature and the optical density at 590 nm of toluidine blue stained cells was determined using a vertical pathway spectrophotometer to quantitate attachment (VMAX Kinetic Microplate Reader, Molecular Devices, Menlo Park, Calif.). This procedure is a modification of a previously published method (Cardarelli et al, J. Biol. Chem., 269:18668-18673 (1994) and Cardarelli et al, Proc. Natl. Acad. Sci. USA, 83:2647-2651 (1986)).

T1 sequence (P13612 34-1032): as the sequence (P13612 34-1032) above
T1 sequence (P05556 21-798): as the sequence (P05556 21-798) above

Turning to `CC1(C)[C@@H](C(=O)N[C@@H](Cc2ccc(NC(=O)c3c(F)cccc3F)cc2)C(=O)O)CC[C@@]1(C)C(=O)O` [Example 83], the melting point was 150 to 152 °C. This compound registered an IC50 in series [1] of no more than 800 nM. For the same compound, in series [2], the IC50 was no more than 80 nM.

`CC(=O)Nc1ccc(C[C@H](NC(=O)[C@H]2CC[C@@](C)(C(=O)O)C2(C)C)C(=O)O)cc1` [Example 79] showed a melting point of 238 to 240 °C. This compound also gave an IC50 in series [1] of 5000 to 10000 nM.

Turning to `CC1(C)[C@@H](C(=O)N[C@@H](Cc2ccc(NC(=O)c3cc(C(F)(F)F)ccc3C(F)(F)F)cc2)C(=O)O)CC[C@@]1(C)C(=O)O` [Example 104], the melting point was in the range of 148 to 150 °C. This compound also came in with an IC50 in series [1] of no more than 800 nM. The same compound gave an IC50 in series [2] of no more than 80 nM. With `CC1(C)[C@@H](C(=O)N[C@H](Cc2ccc(NC(=O)c3c(Cl)cccc3Cl)cc2)C(=O)O)CC[C@@]1(C)C(=O)O` [Example 237, (1S-cis)-N-[(3-Carboxy-2,2,3-trimethylcyclopentyl)carbonyl]-4-[(2,6-dichlorobenzoyl)amino]-D-phenylalanine], the melting point fell in the range of 263 to 267 °C. As to `CC1(C)[C@@H](C(=O)N[C@@H](Cc2ccc(NC(=O)c3ccc4ccccc4c3)cc2)C(=O)O)CC[C@@]1(C)C(=O)O` [Example 124], the melting point was 141 to 143 °C. Further, the IC50 in series [1] lay in the range of 800 to 5000 nM. This compound gave an IC50 in series [2] of 80 to 500 nM. `CC1(C)[C@H](C(=O)O)CC[C@@]1(C)C(=O)N[C@@H](Cc1ccc(NC(=O)c2c(Cl)cccc2Cl)cc1)C(=O)O` [Example 250, (1R-trans)-N-[(3-Carboxy-1,2,2-trimethylcyclopentyl)carbonyl]-4-[(2,6-dichlorobenzoyl)amino]-L-phenylalanine] came in with a melting point of 148 to 155 °C. `CC1(C)[C@@H](C(=O)N[C@@H](Cc2ccc(NC(=O)c3ccccc3)cc2)C(=O)O)CC[C@@]1(C)C(=O)O` [Example 85] gave a melting point of 145 to 148 °C. The half-inhibitory concentration (IC50) in series [1] was in the range of 5000 to 10000 nM. In series [2], this compound registered an IC50 of 80 to 500 nM.

The compound `CC1(C)[C@@H](C(=O)N[C@@H](Cc2ccc(NC(=O)C3CCCCC3)cc2)C(=O)O)CC[C@@]1(C)C(=O)O` [Example 75] showed a melting point of 151 to 154 °C. Moreover, the IC50 in series [1] is 800 to 5000 nM. In turn, `CC1(C)[C@@H](C(=O)N[C@@H](Cc2ccc(NC(=O)c3ccccc3O)cc2)C(=O)O)CC[C@@]1(C)C(=O)O` [Example 143] had a melting point of 148 to 150 °C. The IC50 in series [2] fell in the range of 500 to 1000 nM. `CCCCCCCc1ccc(C(=O)Nc2ccc(C[C@H](NC(=O)[C@H]3CC[C@@](C)(C(=O)O)C3(C)C)C(=O)O)cc2)cc1` [Example 122] showed a melting point of 212 to 214 °C. The IC50 in series [1] fell in the range of 800 to 5000 nM.

As to `CC1(C)[C@@H](C(=O)O)CC[C@]1(C)C(=O)N[C@H](Cc1ccc(NC(=O)c2c(Cl)cccc2Cl)cc1)C(=O)O` [Example 246, (1S-trans)-N-[(3-Carboxy-1,2,2-trimethylcyclopentyl)carbonyl]-4-[(2,6-dichlorobenzoyl)amino]-D-phenylalanine], the melting point was 145 to 150 °C.

Take `CC(=O)N(Cc1c(Cl)cccc1Cl)c1ccc(C[C@H](NC(=O)[C@H]2CC[C@@](C)(C(=O)O)C2(C)C)C(=O)O)cc1` [Example 170]: the melting point lay within 241 to 244 °C. Moreover, the IC50 in series [1] fell in the range of 5000 to 10000 nM. On to `COC(=O)[C@H](Cc1ccc(NC(=O)c2c(Cl)cccc2Cl)cc1)NC(=O)[C@H]1CC[C@@](C)(C(=O)NCC(N)=O)C1(C)C` [Example 233, (1S-cis)-N-[[3-[[(2-Amino-2-oxoethyl)amino]carbonyl]-2,2,3-trimethylcyclopentyl]carbonyl]-4-[(2,6-dichlorobenzoyl)amino]-L-phenylalanine methyl ester], for which the melting point was in the range of 232 to 233 °C.

In turn, `CC1(C)[C@@H](C(=O)N[C@@H](Cc2cccc(OCc3ccccc3)c2)C(=O)O)CC[C@@]1(C)C(=O)O` [Example 46] yielded a melting point of 88 to 90 °C. Further, in series [1], the IC50 is 800 to 5000 nM. `CC1(C)[C@@H](C(=O)N[C@@H](Cc2ccc(NC(=O)c3c(Cl)cccc3Cl)c(Br)c2)C(=O)O)CC[C@@]1(C)C(=O)O` [Example 252, (1S-cis)-N-[(3-Carboxy-2,2,3-trimethylcyclopentyl)carbonyl]-3-bromo-4-[(2,6-dichlorobenzoyl)amino]-L-phenylalanine]: the melting point was in the range of 150 to 152 °C. `CC1(C)[C@@H](C(=O)O)CC[C@@]1(C)C(=O)N[C@H](CC(=O)O)Cc1ccc(OCc2c(Cl)cccc2Cl)cc1` (relative stereo) [Example 204, [1R-[1α(S*),3α]]-β-[[(3-Carboxy-1,2,2-trimethylcyclopentyl)carbonyl]amino]-4-[(2,6-dichlorophenyl)methoxy]-benzenebutanoic acid]: the melting point was in the range of 106 to 108 °C. Compound `CCCCC(CC)COc1ccc(CC(NC(=O)C2CCC(C)(C(=O)O)C2(C)C)C(=O)O)cc1` (stereo not shown) [Example 14] displayed a melting point of 94 to 97 °C. Moreover, the IC50 in series [1] was in the range of 5000 to 10000 nM.

The compound `CC1(C)[C@H](C(=O)O)CC[C@]1(C)C(=O)N[C@@H](Cc1ccc(NC(=O)c2c(Cl)cccc2Cl)cc1)C(=O)O` [Example 244, (1S-cis)-N-[(3-Carboxy-1,2,2-trimethylcyclopentyl)carbonyl]-4-[(2,6-dichlorobenzoyl)amino]-L-phenylalanine] registered a melting point of 152 to 157 °C. Compound `CC1(C)[C@@H](C(=O)N[C@@H](Cc2ccc(OCc3ccccc3)cc2)C(=O)O)CC[C@@]1(C)C(=O)O` [Example 2, (1S-cis)-N-[(3-Carboxy-2,2,3-trimethylcyclopentyl)carbonyl]-O-(phenylmethyl)-L-tyrosine] yielded a melting point of 146 to 149 °C. Further, the IC50 in series [2] lay in the range of 500 to 1000 nM. The compound `CC(C)CC(=O)Nc1ccc(C[C@H](NC(=O)[C@H]2CC[C@@](C)(C(=O)O)C2(C)C)C(=O)O)cc1` [Example 134] returned a melting point of 146 to 148 °C. Also, the IC50 in series [1] was in the range of 800 to 5000 nM.

On to `CONC(=O)[C@]1(C)CC[C@H](C(=O)N[C@@H](Cc2ccc(OCc3c(Cl)cccc3Cl)cc2)C(=O)O)C1(C)C` [Example 163], for which the melting point fell in the range of 70 to 72 °C. In series [2], this compound displayed an IC50 of 500 to 1000 nM. On to `COC(=O)C(Cc1cn(Cc2ccc(Cl)c(Cl)c2)cn1)NC(=O)[C@H]1CC[C@@](C)(C(=O)O)C1(C)C` (stereo in doubt) [Example 3, (1S-cis)-N-[(3-Carboxy-2,2,3-trimethylcyclopentyl)carbonyl]-1-[(3,4-dichlorophenyl)methyl]-L-histidine methyl ester], for which the melting point was 174 to 175 °C (dec.).

What is called IC50 is the concentration at which inhibition is half-maximal. A high value points to lower potency. As a reminder, the melting point is the temperature, or range, at which the solid turns liquid.
